Assay: MEK solubility of the dyes
Format: physicochemical
Details: solubility in methyl ethyl ketone at 20° C.
Procedure: In the present disclosure, the “oil-soluble dye” means a dye having a solubility of 5 mass % or greater in methyl ethyl ketone at 20° C. (hereinafter, also referred to as “MEK solubility”).

SMILES | MEK Solubility
CCCCCCCCN(CCCCCCCC)CCS(=O)(=O)c1ccc(/N=N/c2c(S(=O)(=O)O)cc3cc(S(=O)(=O)O)c(/N=N/c4ccc(S(=O)(=O)CCN(CCCCCCCC)CCCCCCCC)cc4)c(O)c3c2N)cc1 [d-9] | 10 mass %
CC(C)(C)CC(C)(C)NCCS(=O)(=O)c1ccc(/N=N/c2c(S(=O)(=O)O)cc3cc(S(=O)(=O)O)c(/N=N/c4ccc(S(=O)(=O)CCNC(C)(C)CC(C)(C)C)cc4)c(O)c3c2N)cc1 [d-6] | 10 mass %
CCCCC(CC)COCCCNCCS(=O)(=O)c1ccc(/N=N/c2c(S(=O)(=O)O)cc3cc(S(=O)(=O)O)c(/N=N/c4ccc(S(=O)(=O)CCNCCCOCC(CC)CCCC)cc4)c(O)c3c2N)cc1 (stereo not drawn) [d-4] | 10 mass %
CCCCC(CC)COCCS(=O)(=O)c1ccc(/N=N/c2c(S(=O)(=O)O)cc3cc(S(=O)(=O)O)c(/N=N/c4ccc(S(=O)(=O)CCOCC(CC)CCCC)cc4)c(O)c3c2N)cc1 (stereo not drawn) [d-2] | 10 mass %
CCCCN(CCCC)CCS(=O)(=O)c1ccc(/N=N/c2c(S(=O)(=O)O)cc3cc(S(=O)(=O)O)c(/N=N/c4ccc(S(=O)(=O)CCN(CCCC)CCCC)cc4)c(O)c3c2N)cc1 [d-7] | 7 mass %
CCCCCCCCCCCCSCCS(=O)(=O)c1ccc(/N=N/c2c(S(=O)(=O)O)cc3cc(S(=O)(=O)O)c(/N=N/c4ccc(S(=O)(=O)CCSCCCCCCCCCCCC)cc4)c(O)c3c2N)cc1 [d-3] | 10 mass %
CC(C)CNCCS(=O)(=O)c1ccc(/N=N/c2c(S(=O)(=O)O)cc3cc(S(=O)(=O)O)c(/N=N/c4ccc(S(=O)(=O)CCNCC(C)C)cc4)c(O)c3c2N)cc1 [d-5] | 7 mass %
CCCCCCN(CCCCCC)CCS(=O)(=O)c1ccc(/N=N/c2c(S(=O)(=O)O)cc3cc(S(=O)(=O)O)c(/N=N/c4ccc(S(=O)(=O)CCN(CCCCCC)CCCCCC)cc4)c(O)c3c2N)cc1 [d-8] | 10 mass %

From patent publication US20220213341A1, “COLORED RESIN PARTICLE DISPERSION, INK, INK SET, INK JET TEXTILE PRINTING METHOD, MANUFACTURING METHOD OF OIL-SOLUBLE DYE, AND PRINTED TEXTILE PRODUCT” (FUJIFILM CORPORATION, priority 2019, published 2022)
